From PubChem BioAssay AID248 (DTP/NCI, 2004) come the findings set out here.

The assay deals with L1210 leukemia ip in BDF1 mice, survival T/C. Nature of the assay: NCI In Vivo Anticancer Drug Screen. Data for tumor model L1210 Leukemia (intraperitoneal) in B6D2F1 (BDF1) mice. To be noted: endpoint: mean survival time, higher = longer survival. In short, it runs like this: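 Value reflects the ratio of survival in compound-treated mice to survival in vehicle-treated controls, with both groups carrying the same transplanted tumor.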

[1] abbreviates: dose: 100.0 mg/kg/injection, schedule: Q01DX001 (ip), vehicle: Klucel (hydroxypropylcellulose) (HPC).
Setting [2] is: dose: 200.0 mg/kg/injection, schedule: Q01DX001 (ip), vehicle: Klucel (hydroxypropylcellulose) (HPC).
The mark [3] stands for this setting: dose: 400.0 mg/kg/injection, schedule: Q01DX001 (ip), vehicle: Klucel (hydroxypropylcellulose) (HPC).
[4] abbreviates: dose: 100.0 mg/kg/injection, schedule: Q01DX009 (ip), vehicle: saline with Tween-80.
The mark [5] stands for this setting: dose: 100.0 mg/kg/injection, schedule: Q04DX003 (ip), vehicle: saline with Tween-80.
The mark [6] stands for this setting: dose: 200.0 mg/kg/injection, schedule: Q01DX009 (ip), vehicle: saline with Tween-80.
The mark [7] stands for this setting: dose: 200.0 mg/kg/injection, schedule: Q04DX003 (ip), vehicle: saline with Tween-80.
Setting [8] is: dose: 400.0 mg/kg/injection, schedule: Q01DX009 (ip), vehicle: saline with Tween-80.
The mark [9] stands for this setting: dose: 400.0 mg/kg/injection, schedule: Q04DX003 (ip), vehicle: saline with Tween-80.
Where [10] appears, read: dose: 50.0 mg/kg/injection, schedule: Q01DX009 (ip), vehicle: saline with Tween-80.
[11] abbreviates: dose: 50.0 mg/kg/injection, schedule: Q01DX009 (ip), vehicle: saline.
Where [12] appears, read: dose: 100.0 mg/kg/injection, schedule: Q01DX009 (ip), vehicle: saline.
[13] abbreviates: dose: 100.0 mg/kg/injection, schedule: Q01DX009 (ip), vehicle: Klucel (hydroxypropylcellulose) (HPC).
Setting [14] is: dose: 200.0 mg/kg/injection, schedule: Q01DX009 (ip), vehicle: Klucel (hydroxypropylcellulose) (HPC).
Setting [15] is: dose: 400.0 mg/kg/injection, schedule: Q01DX009 (ip), vehicle: Klucel (hydroxypropylcellulose) (HPC).
The mark [16] stands for this setting: dose: 100.0 mg/kg/injection, schedule: Q04DX003 (ip), vehicle: Klucel (hydroxypropylcellulose) (HPC).
[17] abbreviates: dose: 200.0 mg/kg/injection, schedule: Q04DX003 (ip), vehicle: Klucel (hydroxypropylcellulose) (HPC).
[18] abbreviates: dose: 400.0 mg/kg/injection, schedule: Q04DX003 (ip), vehicle: Klucel (hydroxypropylcellulose) (HPC).
[19] abbreviates: dose: 100.0 mg/kg/injection, schedule: Q04DX002 (ip), vehicle: Klucel (hydroxypropylcellulose) (HPC).
[20] abbreviates: dose: 200.0 mg/kg/injection, schedule: Q04DX002 (ip), vehicle: Klucel (hydroxypropylcellulose) (HPC).
Setting [21] is: dose: 400.0 mg/kg/injection, schedule: Q04DX002 (ip), vehicle: Klucel (hydroxypropylcellulose) (HPC).

Toxic doses and inconclusive results are not listed.

With `N#CC1C(=O)NC(=O)C(C#N)C12CCN(Cc1ccccc1)CC2` (stereo not drawn), the T/C by setting is: under setting [1], 102 % of control; under setting [2], 97 % of control; under setting [3], 103 % of control.
For the compound `CC(=O)OC(OC(C)=O)c1cccc2ccccc12`, the T/C (dose: 222.0 mg/kg/injection, schedule: Q01DX Z (ip), vehicle: saline) is 91 % of control; the T/C (dose: 333.0 mg/kg/injection, schedule: Q01DX Z (ip), vehicle: saline) is 98 % of control; the T/C (dose: 500.0 mg/kg/injection, schedule: Q01DX Z (ip), vehicle: saline) was 109 % of control.
Take `NC(=S)N/N=C\C(c1ccccc1)c1ccccc1`: the T/C under setting [4] is 98 % of control; the T/C under setting [5] is 96 % of control; the T/C under setting [6] is 94 % of control; the T/C under setting [7] is 95 % of control; the T/C under setting [8] is 96 % of control; the T/C under setting [9] is 104 % of control.
Turning to `Nc1ncnc(N)c1[N+](=O)[O-]`, for the setting “dose: 125.0 mg/kg/injection, schedule: Q01DX Z (ip), vehicle: methylcellulose (MC)”, the T/C was 88 % of control.
With `CCOC(=O)C[n+]1ccccc1`, the T/C by setting is: under setting [10], 98 % of control; under setting [11], 96 % of control; under setting [4], 93 % of control; under setting [12], 102 % of control; under setting [6], 91 % of control.
In the case of `CC(=O)N1C(=O)N(Cl)C(=O)C1(C)c1cccs1` (stereo not drawn), the T/C is 107 % of control under setting [4]; 105 % of control under setting [5]; 101 % of control under setting [6]; 103 % of control under setting [7]; 93 % of control under setting [8]; 106 % of control under setting [9].
Turning to `CCOC(=N)CCCl`, the T/C was 94 % of control under setting [4], 102 % of control under setting [6] and 96 % of control under setting [8].
With `O=C(CNC(=O)c1cccc(C(=O)NCC(=O)Nc2ccc(C3=NCCN3)cc2)c1)Nc1ccc(C2=NCCN2)cc1`, the T/C (dose: 4.0 mg/kg/injection, schedule: Q01DX Z (ip), vehicle: water) is 107 % of control; the T/C (dose: 6.0 mg/kg/injection, schedule: Q01DX Z (ip), vehicle: water) is 104 % of control; the T/C (dose: 9.0 mg/kg/injection, schedule: Q01DX Z (ip), vehicle: water) was 113 % of control; the T/C (dose: 12.0 mg/kg/injection, schedule: Q01DX Z (ip), vehicle: water) was 153 % of control.
Take `Cc1cccc(NC(=O)COc2cc(Cl)c(Cl)cc2Cl)c1C`: the T/C is 98 % of control under setting [13], 93 % of control under setting [14] and 101 % of control under setting [15].
Regarding `[CH3][Sn]([CH3])([CH3])[O][N+](=O)[O-]`, the T/C runs as follows: (dose: 0.18 mg/kg/injection, schedule: Q01DX009 (ip), vehicle: saline) 94 % of control; (dose: 0.37 mg/kg/injection, schedule: Q01DX009 (ip), vehicle: saline) 100 % of control; (dose: 0.75 mg/kg/injection, schedule: Q01DX009 (ip), vehicle: saline) 103 % of control; (dose: 1.5 mg/kg/injection, schedule: Q04DX003 (ip), vehicle: saline) 108 % of control; (dose: 3.0 mg/kg/injection, schedule: Q04DX003 (ip), vehicle: saline) 103 % of control.
`CCNc1nc(N)nc(Cl)c1N`: the T/C runs as follows: under setting [5], 107 % of control; under setting [7], 100 % of control; under setting [9], 105 % of control.
As to `O=C(Nc1cccc(Br)c1)c1cc(Cl)cc(Cl)c1Br`, the T/C was 105 % of control (dose: 87.5 mg/kg/injection, schedule: Q04DX003 (ip), vehicle: saline with Tween-80); 97 % of control (dose: 175.0 mg/kg/injection, schedule: Q04DX003 (ip), vehicle: saline with Tween-80); 97 % of control (dose: 350.0 mg/kg/injection, schedule: Q04DX003 (ip), vehicle: saline with Tween-80).
For the compound `Cc1ccccc1N=Cc1cccc([N+](=O)[O-])c1`, the T/C is 107 % of control under setting [1]; 98 % of control under setting [16]; 107 % of control under setting [2]; 101 % of control under setting [17]; 112 % of control under setting [3]; 98 % of control under setting [18].
Consider `O=P(CCCl)(OCCCl)N1CCCCC1` (stereo not drawn), for which the T/C (dose: 50.0 mg/kg/injection, schedule: Q04DX003 (ip), vehicle: saline) was 104 % of control; the T/C under setting [12] was 93 % of control; the T/C (dose: 100.0 mg/kg/injection, schedule: Q04DX003 (ip), vehicle: saline) is 104 % of control; the T/C (dose: 200.0 mg/kg/injection, schedule: Q01DX009 (ip), vehicle: saline) is 96 % of control; the T/C (dose: 200.0 mg/kg/injection, schedule: Q04DX003 (ip), vehicle: saline) is 102 % of control; the T/C (dose: 400.0 mg/kg/injection, schedule: Q01DX009 (ip), vehicle: saline) is 88 % of control. In addition, the T/C (dose: 400.0 mg/kg/injection, schedule: Q04DX003 (ip), vehicle: saline) is 98 % of control.
Consider `CCCCCCCCCCCC(=O)N/N=C(\c1ccccc1)c1ccc(Cl)cc1`, for which the T/C is, setting by setting: under setting [19], 103 % of control; under setting [20], 103 % of control; under setting [21], 122 % of control.
Regarding `CC12CCCCC1(O)CC(=O)CC2` (stereo not drawn), the T/C was 101 % of control under setting [19], 99 % of control under setting [20] and 108 % of control under setting [21].
As for `O=C1C(O)CCN1Cc1ccccc1` (stereo not drawn), the T/C is, setting by setting: (dose: 50.0 mg/kg/injection, schedule: Q01DX001 (ip), vehicle: saline) 108 % of control; (dose: 100.0 mg/kg/injection, schedule: Q01DX001 (ip), vehicle: saline) 104 % of control; (dose: 200.0 mg/kg/injection, schedule: Q01DX001 (ip), vehicle: saline) 104 % of control; (dose: 400.0 mg/kg/injection, schedule: Q01DX001 (ip), vehicle: saline) 102 % of control.
On to `CC1(CCN2CCC3(CC2)C(=O)NCN3c2ccccc2)Oc2ccccc2O1`, for which the T/C is 104 % of control under setting [16], 111 % of control under setting [17] and 93 % of control under setting [18].
For the compound `C/C(=N\O)C1(O)CCCCC1`, the T/C reads like this: under setting [13], 98 % of control; under setting [16], 103 % of control; under setting [14], 93 % of control; under setting [17], 101 % of control; under setting [15], 96 % of control; under setting [18], 108 % of control.
On to `Clc1ccccc1C(N1CCCCC1)N1CCCCC1`, for which the T/C (dose: 100.0 mg/kg/injection, schedule: Q04DX002 (ip), vehicle: saline) was 88 % of control; the T/C (dose: 200.0 mg/kg/injection, schedule: Q04DX002 (ip), vehicle: saline) is 92 % of control; the T/C (dose: 400.0 mg/kg/injection, schedule: Q04DX002 (ip), vehicle: saline) is 95 % of control.
With `COc1ccc(OC)c2cc3ccccc3cc12`, the T/C is 106 % of control (dose: 100.0 mg/kg/injection, schedule: Q01DX001 (ip), vehicle: carboxymethylcellulose (CMC)); 104 % of control (dose: 200.0 mg/kg/injection, schedule: Q01DX001 (ip), vehicle: carboxymethylcellulose (CMC)); 93 % of control (dose: 400.0 mg/kg/injection, schedule: Q01DX001 (ip), vehicle: carboxymethylcellulose (CMC)).
On to `CCN(CC)CCC(=O)c1ccccc1`, for which the T/C runs as follows: (dose: 12.5 mg/kg/injection, schedule: Q01DX009 (ip), vehicle: saline) 100 % of control; (dose: 25.0 mg/kg/injection, schedule: Q01DX009 (ip), vehicle: saline) 97 % of control; under setting [10], 96 % of control; under setting [11], 97 % of control; under setting [4], 91 % of control.
